Experimental data: patent publication US9375004B2 (Bayer Intellectual Property GmbH, priority 2010, dated 2016)
Read-outs that look alike come from different tables or passages of the source.

Legend:
[1] = logP by HPLC on reversed-phase column (EEC Directive 79/831 Annex V.A8); details: EEC Directive 79/831 Annex V.A8
[2] = tested on: Alternaria solani; test: Alternaria test (tomato)/preventive; type: in vivo; details: 500 ppm, preventive, evaluated 7 days after inoculation
[3] = tested on: Sphaerotheca fuliginea; test: Sphaerotheca test (cucumber)/preventive; type: in vivo; details: 500 ppm, preventive, evaluated 7 days after inoculation
[4] = tested on: Pyrenophora teres; test: Pyrenophora teres-test (barley)/preventive; type: in vivo; details: 500 ppm, preventive, evaluated 8 days after inoculation
[5] = tested on: Fusarium nivale (var. majus); test: Fusarium nivale (var. majus)-test (wheat)/preventive; details: 500 ppm, preventive, evaluated 5 days after inoculation
Procedure: Fusarium Nivale (Var. Majus)-Test (Wheat)/Preventive
Solvent: 49 parts by weight of N,N-dimethylacetamide
(§1) Emulsifier: 1 part by weight of alkylaryl polyglycol ether
After the spray coating has been dried, the plants are slightly injured by using a sandblast and afterwards they are sprayed with a conidia suspension of Fusarium nivale (var. majus).
The plants are placed in the greenhouse under a translucent incubation cabinet at a temperature of approximately 10° C. and a relative atmospheric humidity of approximately 100%.
The test is evaluated 5 days after the inoculation.

[6] = tested on: Uromyces appendiculatus; details: 100 ppm, beans, preventive, evaluated 10 days after inoculation
[7] = tested on: Venturia inaequalis; test: Venturia test (apples)/preventive; details: 100 ppm, preventive, evaluated 10 days after inoculation
Procedure: Venturia Test (Apples)/Preventive
(§2) Solvent: 24.5 parts by weight of acetone • 24.5 parts by weight of N,N-dimethylformamide
as §1
After the spray coating has dried on, the plants are inoculated with an aqueous conidia suspension of the causal agent of apple scab (Venturia inaequalis) and then remain for 1 day in an incubation cabinet at approximately 20° C. and a relative atmospheric humidity of 100%.
The plants are then placed in a greenhouse at approximately 21° C. and a relative atmospheric humidity of approximately 90%.
The test is evaluated 10 days after the inoculation.

[8] = tested on: Puccinia triticina; test: Puccinia triticina-test (wheat)/preventive; type: in vivo; details: 500 ppm, preventive, evaluated 8 days after inoculation
[9] = tested on: Botrytis cinerea; test: Botrytis test (beans)/preventive; details: 100 ppm, preventive, lesion size 2 days after inoculation
Procedure: Botrytis Test (Beans)/Preventive
as §2, §1
After the spray coating has dried on, 2 small pieces of agar covered with growth of Botrytis cinerea are placed on each leaf. The inoculated plants are placed in a darkened chamber at 20° C. and a relative atmospheric humidity of 100%.
2 days after the inoculation, the size of the lesions on the leaves is evaluated.

[10] = HPLC on reversed-phase column (C 18)
[11] = HPLC on a reversed-phase column (C 18)

SMILES	logP [1, 10]	Efficacy [2]	Efficacy [3]	Efficacy [4]	Efficacy [5]	Efficacy [6]	Efficacy [7]	Efficacy [8]	Efficacy [9]	logP [1, 11]	Efficacy ([6]; listed as 104 from this invention)
COC(C)(C)C#Cc1ccccc1NC(=O)c1c(C(F)F)nn(C)c1F [Example 19]	3.34	80%									
Cn1nc(C(F)F)c(C(=O)Nc2ccccc2-c2ccccc2)c1Cl [Example 74]	3.59	78%									
Cn1nc(C(F)F)c(C(=O)Nc2ccccc2-c2ccc(Cl)c(Cl)c2)c1Cl [Example 126]	4.14	89%	100%	100%	100%	96%	75%	100%			
Cn1nc(C(F)F)c(C(=O)Nc2ccccc2-c2ccc(Cl)cc2)c1Cl [Example 88]	3.85	94%	100%	100%	100%	100%	100%	100%	92%		
Cn1nc(C(F)F)c(C(=O)Nc2ccccc2-c2ccc(-c3ccccc3)cc2)c1F [Example 137]	4.27	95%	100%	93%		99%	100%	100%			
Cn1nc(C(F)F)c(C(=O)Nc2c(F)cccc2-c2ccc(Cl)c(Cl)c2)c1F [Example 115]	3.50	95%			86%	100%	100%	88%	94%		
Cn1nc(C(F)F)c(C(=O)Nc2cccc(Oc3cccc(C(F)(F)F)c3)c2)c1Cl [Example 255]					100%	73%		94%		3.89	
Cn1nc(C(F)F)c(C(=O)Nc2ccccc2-c2cccc(Cl)c2)c1Cl [Example 87]	3.87	95%	95%								
CCCC(C)c1ccccc1NC(=O)c1c(C(F)F)nn(C)c1F (centres unmarked) [Example 8]	3.55	95%		100%		100%	100%	100%	98%		
Cn1nc(C(F)F)c(C(=O)Nc2ccccc2-c2ccc(-c3ccccc3)cc2)c1Cl [Example 138]	4.61		100%	86%				100%			
Cn1nc(C(F)F)c(C(=O)Nc2ccccc2C(C)(C)C)c1F [Example 3]	2.98	94%	98%								
Cn1nc(C(F)F)c(C(=O)Nc2ccccc2-c2ccc(F)c(F)c2)c1Cl [Example 89]	3.40	94%	100%	100%	100%	100%	100%	100%	100%		
Cn1nc(C(F)F)c(C(=O)Nc2cccc(OC(F)(F)C(F)F)c2)c1Cl [Example 188]	3.09			92%		100%		100%			
Cc1cc(Cl)ccc1Oc1cccc(NC(=O)c2c(C(F)F)nn(C)c2F)c1 [Example 254]		70%								4.19	
Cn1nc(C(F)F)c(C(=O)Nc2ccccc2-c2cc(F)c(F)c(F)c2)c1F [Example 104]	3.30			100%			100%	100%	100%		100%
Cn1nc(C(F)F)c(C(=O)Nc2cccc3c2CCC3)c1Cl [Example 55]	3.19			71%	83%			100%			
Cn1nc(C(F)F)c(C(=O)Nc2ccc(F)cc2-c2ccc(F)cc2)c1Cl [Example 79]	3.41	90%	95%								
CC(C)Oc1cccc(NC(=O)c2c(C(F)F)nn(C)c2Cl)c1 [Example 169]	2.98			100%	71%	100%	96%	100%			
CC1CCCC(c2ccccc2NC(=O)c2c(C(F)F)nn(C)c2Cl)C1 (centres unmarked) [Example 53]	4.29	100%	100%			100%	100%		94%		
Cn1nc(C(F)F)c(C(=O)Nc2ccccc2-c2ccc(F)cc2)c1F [Example 80]	3.20	95%	98%								
CCCOc1cccc(NC(=O)c2c(C(F)F)nn(C)c2Cl)c1 [Example 174]	3.25	70%									

SMILES	logP [1, 10]	Efficacy [2]	Efficacy [3]	Efficacy [4]	Efficacy [5]	Efficacy [6]	Efficacy [7]	Efficacy [8]	Efficacy [9]	logP [1, 11]	Efficacy ([6]; listed as 104 from this invention)
Cn1nc(C(F)F)c(C(=S)Nc2ccccc2-c2ccc(Cl)c(F)c2)c1Cl [Example 101]	3.92	80%	95%	100%	100%			100%			
Cn1nc(C(F)F)c(C(=O)Nc2ccccc2-c2ccc(Cl)c(Cl)c2)c1F [Example 125]	3.85	95%	98%	100%		100%	100%	100%	100%		
Cn1nc(C(F)F)c(C(=S)Nc2ccccc2-c2ccc(Br)cc2)c1Cl [Example 141]	3.96	70%	95%								
C=C(C)COc1cccc(NC(=O)c2c(C(F)F)nn(C)c2F)c1 [Example 176]	3.15			100%	100%			100%			
Cn1nc(C(F)F)c(C(=O)Nc2ccccc2-c2ccc(Br)cc2Cl)c1Cl [Example 154]	4.16	95%	100%			100%	100%		78%		
Cn1nc(C(F)F)c(C(=O)Nc2ccc(F)cc2-c2ccc(F)cc2)c1F [Example 77]	3.16	95%	95%								
Cn1nc(C(F)F)c(C(=O)Nc2ccccc2-c2ccc(Br)cc2)c1Cl [Example 140]	3.88			100%	86%	100%	100%	100%	98%		
Cn1nc(C(F)F)c(C(=O)Nc2ccccc2-c2cc(F)c(F)cc2F)c1Cl [Example 108]	3.46	100%	93%			100%	100%		99%		
Cc1ccccc1-c1ccccc1NC(=O)c1c(C(F)F)nn(C)c1F [Example 75]	3.74	94%		100%				70%			
Cn1nc(C(F)F)c(C(=O)Nc2ccccc2-c2cc(F)c(F)cc2F)c1F [Example 107]	3.25	100%	88%								
Cn1nc(C(F)F)c(C(=O)Nc2cccc3c2CCC3)c1F [Example 54]	2.94	70%									
CC1CC(C)(C)c2cccc(NC(=O)c3c(C(F)F)nn(C)c3Cl)c21 (centres unmarked) [Example 65]	4.04	80%		100%	86%	100%	98%	100%			
Cn1nc(C(F)F)c(C(=O)Nc2ccccc2OC(F)(F)C(F)C(F)(F)F)c1F (centres unmarked) [Example 32]	3.48	95%									
Cn1nc(C(F)F)c(C(=O)Nc2ccccc2-c2ccccc2)c1F [Example 73]	3.25	90%	75%								
Cc1cc(C)c(-c2cccc(NC(=O)c3c(C(F)F)nn(C)c3Cl)c2)c(C)c1 [Example 212]	4.56				75%			86%			
CCCC(C)c1ccccc1NC(=O)c1c(C(F)F)nn(C)c1Cl (centres unmarked) [Example 9]	3.77	95%	100%	100%	100%	100%	100%	100%			
Cn1nc(C(F)F)c(C(=O)Nc2ccccc2-c2ccc(Br)cc2Cl)c1F [Example 155]	3.85	95%				100%	100%		100%		
Cn1nc(C(F)F)c(C(=O)Nc2ccccc2-c2ccc(F)cc2)c1Cl [Example 78]	3.40	90%	75%								
CCC(CC(C)C)c1ccccc1NC(=O)c1c(C(F)F)nn(C)c1F (centres unmarked) [Example 20]	4.28	90%									
Cn1nc(C(F)F)c(C(=O)Nc2cccc(OC(F)(F)F)c2)c1Cl [Example 181]	3.25					100%					
